Experimental data from US11180462B2, “Microbiocidal oxadiazole derivatives” (SYNGENTA PARTICIPATIONS AG, priority 2015, dated 2021).

What was measured:
[1] = tested on: Puccinia recondita f. Sp. Tritici; assay: Fungicidal activity against Puccinia recondita f. sp. tritici / wheat / leaf disc preventative (brown rust); type: in vivo; conditions: foliar, 200 ppm in the applied formulation, wheat leaf segments, preventative, compared to untreated control leaf disks, read-out: disease control
Method: Leaf disks or leaf segments of various plant species are cut from plants grown in a greenhouse. The cut leaf disks or segments are placed in multiwell plates (24-well format) onto water agar. The leaf disks are sprayed with a test solution before (preventative) or after (curative) inoculation. Compounds to be tested are prepared as DMSO solutions (max. 10 mg/ml) which are diluted to the appropriate concentration with 0.025% Tween20 just before spraying. The inoculated leaf disks or segments are incubated under defined conditions (temperature, relative humidity, light, etc.) according to the respective test system. A single evaluation of disease level is carried out 3 to 14 days after inoculation, depending on the pathosystem. Percent disease control relative to the untreated check leaf disks or segments is then calculated.
Fungicidal Activity Against Puccinia recondita f. Sp. Tritici/Wheat/Leaf Disc Preventative (Brown Rust)
Wheat leaf segments cv. Kanzler were placed on agar in multiwell plates (24-well format) and sprayed with the formulated test compound diluted in water. The leaf disks were inoculated with a spore suspension of the fungus 1 day after application. The inoculated leaf segments were incubated at 19° C. and 75% relative humidity (rh) under a light regime of 12 hours light/12 hours darkness in a climate cabinet and the activity of a compound was assessed as percent disease control compared to untreated when an appropriate level of disease damage appears in untreated check leaf segments (7 to 9 days after application).
The following compounds at 200 ppm in the applied formulation give at least 80% disease control in this test when compared to untreated control leaf disks under the same conditions, which show extensive disease development.

[2] = tested on: Glomerella lagenarium (Colletotrichum lagenarium); assay: Fungicidal activity against Glomerella lagenarium (Colletotrichum lagenarium) liquid culture / cucumber / preventative (anthracnose); type: cell-based; conditions: Colletotrichum orbiculare; 20 ppm in the applied formulation; liquid culture (PDB), growth inhibition measured photometrically after 3 to 4 days; compared to untreated control; read-out: disease control
In short: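 Photometric read-out of fungal growth after 2–7 days, expressed as percent antifungal activity versus untreated check. Cryo-stored conidia in PDB; compound at 20 ppm; dark, 24 °C, 96% RH.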

Structure (SMILES)	pest or weed control at 200 ppm [1] [%]	inhibition of growth at 20 ppm [2] [%]
C#CCN(Cc1ccc(-c2noc(C(F)(F)F)n2)cc1)C(=O)c1cc(Cl)ccc1O [Compound 1.184, 5-chloro-2-hydroxy-N-prop-2-ynyl-N-[[4-(5-(trifluoromethyl)-1,2,4-oxadiazol-3-yl]phenyl]methyl]-benzamide]	≥ 80	≥ 80
CON(Cc1ccc(-c2noc(C(F)(F)F)n2)cc1)C(=O)c1cccc2nnsc12 [Compound 1.67, N-methoxy-N-[[4-[5-(trifluoromethyl)-1,2,4-oxadiazol-3-yl]phenyl]methyl]-1,2,3-benzothiadiazole-7-carboxamide]	≥ 80	≥ 80
CCCCC(=O)N(Cc1ccc(-c2noc(C(F)(F)F)n2)cc1)CC1CCCO1 (stereo not drawn) [Compound 1.453, N-(tetrahydrofuran-2-ylmethyl)-N-[[4-[5-(trifluoromethyl)-1,2,4-oxadiazol-3-yl]phenyl]methyl]-pentanamide]	≥ 80	≥ 80
Cc1cccc(C)c1C(=O)N(Cc1ccc(-c2noc(C(F)(F)F)n2)cc1)C1CC1 [Compound 1.105, N-cyclopropyl-2,6-dimethyl-N-[[4-[5-(trifluoromethyl)-1,2,4-oxadiazol-3-yl]phenyl]methyl]-benzamide]	≥ 80	≥ 80
CCC(COC)C(=O)N(Cc1ccc(-c2noc(C(F)(F)F)n2)cc1)CC1CCCO1 (stereo not drawn) [Compound 1.440, 2-(methoxymethyl)-N-(tetrahydrofuran-2-ylmethyl)-N-[[4-[5-(trifluoromethyl)-1,2,4-oxadiazol-3-yl]phenyl]methyl]-butanamide]	≥ 80	≥ 80
CCC(C)C(=O)N(Cc1ccc(-c2noc(C(F)(F)F)n2)cc1)CC1CCCO1 (stereo not drawn) [Compound 1.437, 2-methyl-N-(tetrahydrofuran-2-ylmethyl)-N-[[4-[5-(trifluoromethyl)-1,2,4-oxadiazol-3-yl]phenyl]methyl]-butanamide]	≥ 80	≥ 80
CC(=O)NCC(=O)N(Cc1ccc(-c2noc(C(F)(F)F)n2)cc1)OCC=C(Cl)Cl [Compound 1.537, 2-acetamido-N-(3,3-dichloroallyloxy)-N-[[4-[5-(trifluoromethyl)-1,2,4-oxadiazol-3-yl]phenyl]methyl]-acetamide]	≥ 80	≥ 80
O=C(c1ccccc1Cl)N(Cc1ccc(-c2noc(C(F)(F)F)n2)cc1)C1CC1 [Compound 1.120, 2-chloro-N-cyclopropyl-N-[[4-[5-(trifluoromethyl)-1,2,4-oxadiazol-3-yl]phenyl]methyl]-benzamide]	≥ 80	≥ 80
O=C(CCl)N(Cc1ccc(-c2noc(C(F)(F)F)n2)cc1)Cc1ccco1 [Compound 1.462, 2-chloro-N-(2-furylmethyl)-N-[[4-[5-(trifluoromethyl)-1,2,4-oxadiazol-3-yl]phenyl]methyl]-acetamide]	≥ 80	≥ 80
CC=CC(=O)N(Cc1ccc(-c2noc(C(F)(F)F)n2)cc1)CC1CCCO1 (stereo not drawn) [Compound 1.413, N-(tetrahydrofuran-2-ylmethyl)-N-[[4-[5-(trifluoromethyl)-1,2,4-oxadiazol-3-yl]phenyl]methyl]but-2-enamide]	≥ 80	≥ 80
O=C(c1ccc(Cl)cc1)N(Cc1ccc(-c2noc(C(F)(F)F)n2)cc1)C1CC1 [Compound 1.142, 4-chloro-N-cyclopropyl-N-[[4-[5-(trifluoromethyl)-1,2,4-oxadiazol-3-yl]phenyl]methyl]-benzamide]	≥ 80	≥ 80
CCCON(Cc1ccc(-c2noc(C(F)(F)F)n2)cc1)C(=O)COC [Compound 1.287, 2-methoxy-N-propoxy-N-[[4-[5-(trifluoromethyl)-1,2,4-oxadiazol-3-yl]phenyl]methyl]-acetamide]	≥ 80	≥ 80
O=C(Cc1cccnc1)N(Cc1ccc(-c2noc(C(F)(F)F)n2)cc1)CC1CC1 [Compound 1.214, N-(cyclopropylmethyl)-2-(3-pyridyl)-N-[[4-[5-(trifluoromethyl)-1,2,4-oxadiazol-3-yl]phenyl]methyl]-acetamide]	≥ 80	≥ 80
O=C(C1CC1(F)F)N(Cc1ccc(-c2noc(C(F)(F)F)n2)cc1)CC1CCCO1 (stereo not drawn) [Compound 1.414, 2,2-difluoro-N-(tetrahydrofuran-2-ylmethyl)-N-[[4-[5-(trifluoromethyl)-1,2,4-oxadiazol-3-yl]phenyl]methyl]-cyclopropane-carboxamide]	≥ 80	≥ 80
O=C(C1CC1(F)F)N(Cc1ccc(-c2noc(C(F)(F)F)n2)cc1)Cc1ccco1 (stereo not drawn) [Compound 1.464, 2,2-difluoro-N-(2-furylmethyl)-N-[[4-[5-(trifluoromethyl)-1,2,4-oxadiazol-3-yl]phenyl]methyl]-cyclopropane-carboxamide]	≥ 80	≥ 80
CC(C)CC(=O)N(Cc1ccc(-c2noc(C(F)(F)F)n2)cc1)CC1CCCO1 (stereo not drawn) [Compound 1.423, 3-methyl-N-(tetrahydrofuran-2-ylmethyl)-N-[[4-[5-(trifluoromethyl)-1,2,4-oxadiazol-3-yl]phenyl]methyl]-butanamide]	≥ 80	≥ 80
CCCON(Cc1ccc(-c2noc(C(F)(F)F)n2)cc1)C(C)=O [Compound 1.320, N-propoxy-N-[[4-[5-(trifluoromethyl)-1,2,4-oxadiazol-3-yl]phenyl]methyl]-acetamide]	≥ 80	≥ 80
C=CCN(Cc1ccc(-c2noc(C(F)(F)F)n2)cc1)C(=O)CCl [Compound 1.482, N-allyl-2-chloro-N-[[4-[5-(trifluoromethyl)-1,2,4-oxadiazol-3-yl]phenyl]methyl]-acetamide]	≥ 80	≥ 80
CCCON(Cc1ccc(-c2noc(C(F)(F)F)n2)cc1)C(=O)C1CCCCO1 (stereo not drawn) [Compound 1.283, N-propoxy-N-[[4-[5-(trifluoromethyl)-1,2,4-oxadiazol-3-yl]phenyl]methyl]-tetrahydropyran-2-carboxamide]	≥ 80	≥ 80
CC(=O)NCC(=O)N(Cc1ccc(-c2noc(C(F)(F)F)n2)cc1)Cc1ccco1 [Compound 1.461, 2-acetamido-N-(2-furylmethyl)-N-[[4-[5-(trifluoromethyl)-1,2,4-oxadiazol-3-yl]phenyl]methyl]-acetamide]	≥ 80	≥ 80
C=CC(=O)N(Cc1ccc(-c2noc(C(F)(F)F)n2)cc1)CC1CCCO1 (stereo not drawn) [Compound 1.430, N-(tetrahydrofuran-2-ylmethyl)-N-[[4-[5-(trifluoromethyl)-1,2,4-oxadiazol-3-yl]phenyl]methyl]-prop-2-enamide]	≥ 80	≥ 80
CCCCON(Cc1ccc(-c2noc(C(F)(F)F)n2)cc1)C(=O)COC [Compound 1.602, N-butoxy-2-methoxy-N-[[4-[5-(trifluoromethyl)-1,2,4-oxadiazol-3-yl]phenyl]methyl]-acetamide]	≥ 80	≥ 80
C#CC(=O)N(Cc1ccc(-c2noc(C(F)(F)F)n2)cc1)OCCC [Compound 1.305, N-propoxy-N-[[4-[5-(trifiuoromethyl)-1,2,4-oxadiazol-3-yl]phenyl]methyl]-prop-2-ynamide]	≥ 80	≥ 80
CC#CCOC(=O)N(Cc1ccc(-c2noc(C(F)(F)F)n2)cc1)OC [Compound 2.7, but-2-ynyl N-methoxy-N-[[4-[5-(trifluoromethyl)-1,2,4-oxadiazol-3-yl]phenyl]methyl]-carbamate]	≥ 80	≥ 80
COCCN(Cc1ccc(-c2noc(C(F)(F)F)n2)cc1)C(=O)C=CC(C)=O [Compound 1.352, N-(2-methoxyethyl)-4-oxo-N-[[4-[5-(trifluoromethyl)-1,2,4-oxadiazol-3-yl]phenyl]methyl]-pent-2-enamide]	≥ 80	≥ 80
COCCN(Cc1ccc(-c2noc(C(F)(F)F)n2)cc1)C(=O)C=CC(F)(F)F [Compound 1.338, 4,4,4-trifluoro-N-(2-methoxyethyl)-N-[[4-[5-(trifluoromethyl)-1,2,4-oxadiazol-3-yl]phenyl]methyl]but-2-enamide]	≥ 80	≥ 80
CCCON(Cc1ccc(-c2noc(C(F)(F)F)n2)cc1)C(=O)COCCOC [Compound 1.298, 2-(2-methoxyethoxy)-N-propoxy-N-[[4-[5-(trifluoromethyl)-1,2,4-oxadiazol-3-yl]phenyl]methyl]-acetamide]	≥ 80	≥ 80
